From patent publication US20250281449A1, “NITROGEN-CONTAINING ANALOGS OF SALINOMYCIN FOR USE IN MULTIPLE MYELOMA (MM)” (Centre National de la Recherche Scientifique, priority 2021, published 2025)

Columns and labels:
AMO-1 = assay: Cell viability assay (Cell Titer-Glo), HMCL; assay type: cell-based; details: Homo sapiens, AMO1; AMO-1 HMCL, 96H
Procedure: (§1) The panel of 17 HMCL cell lines were incubated with increasing concentrations of Ironomycin (A), AM23 (B) or vehicle for 96H.
(§2) HMCL cell lines were cultured for 4 days in 96-well flat-bottom microtiter plates in RPMI 1640 medium or DMEM medium, 10% or 20% FCS (control medium) in the presence of various compounds. The number of viable cells in culture was determined using the Cell Titer-Glo Luminescent Cell Viability Assay from Promega, Madison, WI, USA using a Centro LB 960 luminometer (Berthold Technologies, Bad Wildbad, Germany).
(§3) This test is based on quantitation of the intracellular ATP present, which signals the presence of metabolically active cells. Data are expressed as the mean percentage of six replicates, normalized to the untreated control.

JJN3 = assay: Cell viability assay (Cell Titer-Glo), HMCL; assay type: cell-based; details: Homo sapiens, JJN-3, 96H
Procedure: as §1, §2, §3

L363 = assay: Cell viability assay (Cell Titer-Glo), HMCL; assay type: cell-based; details: Homo sapiens, L-363, 96H
Procedure: as §1, §2, §3

MOLP-8 = assay: Cell viability assay (Cell Titer-Glo), HMCL; assay type: cell-based; details: Homo sapiens; MOLP-8 HMCL, 96H; read-out: IC50
Procedure: as §1, §2, §3

OPM-2 = assay: Cell viability assay (Cell Titer-Glo), HMCL; assay type: cell-based; details: Homo sapiens; OPM-2 HMCL, 96H; read-out: IC50
Procedure: as §1, §2, §3

RPMI = assay: Cell viability assay (Cell Titer-Glo), HMCL; assay type: cell-based; details: Homo sapiens, 96H
Procedure: as §1, §2, §3

XG-1 = assay: Cell viability assay (Cell Titer-Glo), HMCL; assay type: cell-based; details: Homo sapiens; XG-1 HMCL, 96H; read-out: IC50
Procedure: as §1, §2, §3

XG-7 = assay: Cell viability assay (Cell Titer-Glo), HMCL; assay type: cell-based; details: Homo sapiens; XG-7 HMCL, 96H; read-out: IC50
Procedure: as §1, §2, §3

XG11 = assay: Cell viability assay (Cell Titer-Glo), HMCL; assay type: cell-based; details: Homo sapiens, 96H
Procedure: as §1, §2, §3

XG12 = assay: Cell viability assay (Cell Titer-Glo), HMCL; assay type: cell-based; details: Homo sapiens; XG12 HMCL, 96H; read-out: IC50
Procedure: as §1, §2, §3

XG20 = assay: Cell viability assay (Cell Titer-Glo), HMCL; assay type: cell-based; details: Homo sapiens; XG20 HMCL, 96H; read-out: IC50
Procedure: as §1, §2, §3

XG21 = assay: Cell viability assay (Cell Titer-Glo), HMCL; assay type: cell-based; details: Homo sapiens; XG21 HMCL, 96H; read-out: IC50
Procedure: as §1, §2, §3

XG24 = assay: Cell viability assay (Cell Titer-Glo), HMCL; assay type: cell-based; details: Homo sapiens; XG24 HMCL, 96H; read-out: IC50
Procedure: as §1, §2, §3

XG28 = assay: Cell viability assay (Cell Titer-Glo), HMCL; assay type: cell-based; details: Homo sapiens; XG28 HMCL, 96H; read-out: IC50
Procedure: as §1, §2, §3

XG2 = assay: Cell viability assay (Cell Titer-Glo), HMCL; assay type: cell-based; details: Homo sapiens, 96H
Procedure: as §1, §2, §3

XG6 = assay: Cell viability assay (Cell Titer-Glo), HMCL; assay type: cell-based; details: Homo sapiens; XG6 HMCL, 96H; read-out: IC50
Procedure: as §1, §2, §3

XG7 and OPM-2 cells = assay: Cell death with pan caspase inhibitor Q-VD-Oph pretreatment, AnnexinV-PE; assay type: cell-based, human; details: 20 μM Q-VD-Oph pretreatment, 48H
Procedure: XG7 and OPM-2 cells were pretreated at least 30 minutes by 20 μM of Q-VD-Oph as pan caspase inhibitor before treatment. Cells were treated as indicated during 48H, effect of Ironomycin on cell death induction was analyzed using AnnexinV-PE staining by flow cytometry (B). N=4.
Annexin V-PE staining for apoptosis analysis was performed using the “PE Annexin V Apoptosis Detection Kit I” (559763, Becton Dickinson).

non-MM cells = assay: Assay on primary samples of patients, non-MM cells (flow cytometry); assay type: cell-based, human
Procedure: Primary MM cells were treated with Ironomycin (A) or AM-23 (B) and incubated during 96H with IL-6. The toxicity on MM cells and non-MM cells was analyzed by flow cytometry and expressed in % of control.
Bone marrow samples were collected after patients' written informed consent in accordance with the Declaration of Helsinki and institutional research board approval from Montpellier University hospital. Cells are obtained from […] of 5 patients with MM. Cells are obtained by density gradient separation and qualified by Flow cytometry.
Cells are cultured in Gibco® RPMI-1640 (Glutamax) medium (#6187-010) with 10% FBS at a density of 0.5×10^6 Cell/mL with 2 ng/mL of interleukin-6. Cells are seeded 24H after thawing and treated with various compounds during 72H.
Total cells were counted with trypan blue and stained with the panel CD38-APC, CD138-PE (Beckman coulter) and analyzed by flow cytometry (Fortessa cytometer, BD Pharmigen). Tumorous MM cells were gated on CD38+ and CD138+.

XG-7 cells = assay: Drug combination concentration matrix, viability by ATP quantification, Bliss synergy; assay type: cell-based, human
Procedure: XG-7 or XG2 WT (XG2 neg) or XG2 melphalan resistant (XG2 Melph R) cell lines were respectively treated with increasing concentrations of ironomycin combined with melphalan during 96 h and cell viability was tested by ATP quantification to obtain the viability matrix. The synergy matrix was calculated as described in Material and Methods.
XG-7cells were treated with increasing concentrations of ironomycin combined with lenalidomide during 96 h and cell viability was tested by ATP quantification to obtain the viability matrix. The synergy matrix was calculated as described in Material and Methods.
XG-7cells were treated with increasing concentrations of ironomycin combined with pomalidomide during 96 h and cell viability was tested by ATP quantification to obtain the viability matrix. The synergy matrix was calculated as described in Material and Methods.
XG-7cells were treated with increasing concentrations of ironomycin combined with carfilzomib during 96 h and cell viability was tested by ATP quantification to obtain the viability matrix. The synergy matrix was calculated as described in Material and Methods.
XG-7cells were treated with increasing concentrations of ironomycin combined with AZD-5991 during 96 h and cell viability was tested by ATP quantification to obtain the viability matrix. The synergy matrix was calculated as described in Material and Methods
as §2
The interaction between the drugs tested in vitro was investigated with a concentration matrix test, in which increasing concentration of each single drug were assessed with all possible combinations of the other drugs. For each combination, the percentage of expected growing cells in the case of effect independence was calculated according to the Bliss equation (Combes et al., 2019): […]
where fuC is the expected fraction of cells unaffected by the drug combination in the case of effect independence, and fuA and fuB are the fractions of cells unaffected by treatment A and B, respectively. The difference between the fraction of living cells in the cytotoxicity test and the fuC value was considered as an estimation of the interaction effect, with […]. Synergy matrix was built with the R package “SynergyFinder”.

SMILES: C#CCN[C@@H]1C=C[C@]2(O[C@H]([C@@H](CC)C(=O)[C@@H](C)[C@@H](O)[C@H](C)[C@@H]3O[C@@H]([C@@H](CC)C(=O)O)CC[C@@H]3C)[C@@H](C)C[C@H]2C)O[C@@]12CC[C@@](C)([C@H]1CC[C@](O)(CC)[C@H](C)O1)O2 [Ironomycin]
- IC50 (AMO-1): 57 nM
- IC50 (JJN3): 84 nM
- IC50 (L363): 13 nM
- IC50 (MOLP-8): 64.7 nM
- IC50 (OPM-2): 36 nM
- IC50 (RPMI): 73 nM
- IC50 (XG-1): 239 nM
- IC50 (XG-7): 52 nM
- IC50 (XG11): 51 nM
- IC50 (XG12): 30 nM
- IC50 (XG20): 444 nM
- IC50 (XG21): 156 nM
- IC50 (XG24): 19 nM
- IC50 (XG28): 31 nM
- IC50 (XG2): 24 nM
- IC50 (XG6): 26 nM
- inhibition of induced apoptosis by pan caspase inhibitor Q-VD-Oph (XG7 and OPM-2 cells): partially inhibited
- toxicity for non-tumoral cells (non-MM cells): without significant toxicity
- interaction effect, combined with AZD5991 (XG-7 cells; XG-7, 96 h): additive effect
- interaction effect, combined with Lenalidomide (XG-7 cells; XG-7, 96 h): synergy
- interaction effect, combined with Pomalidomide (XG-7 cells; XG-7, 96 h): synergy
- interaction effect, combined with carfilzomib (XG-7 cells; XG-7, 96 h): additive effect
- interaction effect, combined with melphalan (XG-7 cells; XG-7 or XG2 WT, 96 h): synergistic effect
